Earlier results in patent US8030432B2, “Copolymerization of hydroxytyrosol with flavonoids mediated by horseradish peroxidases” (The United States of America as represented by the …, priority 2009, dated 2011).

Key:
[1] = addition of 300 mg/Kg; red meat and poultry

Row | Substance | decomposition at room temperature | inhibition of oxidation [1]
1 | epigallocatechin-3-gallate [EGCG] | decompose at room temperature after a few minutes | 
2 | catechin |  | showed inhibition of oxidation
